Reference: US9738655B2, “Tetrahydroisoquinolines containing substituted azoles as factor XIa inhibitors” (BRISTOL-MYERS SQUIBB COMPANY, priority 2013, dated 2017)
Counter-ions that a name gives are not always drawn. Like-named read-outs stand apart in the source and are kept apart here.

Legend:
[1] = biological target: purified human Factor XIa (Homo sapiens (Human), UniProt P03951); assay: Factor XIa enzyme inhibition assay (chromogenic substrate S-2366)
[2] = biological target: purified human plasma kallikrein (Homo sapiens (Human), UniProt P03952); assay: Plasma kallikrein enzyme inhibition assay (chromogenic substrate S-2302); assay type: biochemical
[3] = measured at 25° C. (no asterisk)
[4] = read-out: Factor XIa Ki, measured at 25° C.

purified human plasma kallikrein, sequence (P03952 391-638): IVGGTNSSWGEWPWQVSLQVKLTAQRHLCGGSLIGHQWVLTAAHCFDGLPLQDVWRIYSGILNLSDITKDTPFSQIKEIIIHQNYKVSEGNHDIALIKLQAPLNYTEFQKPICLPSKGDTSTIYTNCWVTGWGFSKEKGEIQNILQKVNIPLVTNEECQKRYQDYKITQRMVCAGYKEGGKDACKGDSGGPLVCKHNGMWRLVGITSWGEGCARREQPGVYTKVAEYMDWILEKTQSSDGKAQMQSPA
purified human plasma kallikrein, sequence (P03952 20-390 partner): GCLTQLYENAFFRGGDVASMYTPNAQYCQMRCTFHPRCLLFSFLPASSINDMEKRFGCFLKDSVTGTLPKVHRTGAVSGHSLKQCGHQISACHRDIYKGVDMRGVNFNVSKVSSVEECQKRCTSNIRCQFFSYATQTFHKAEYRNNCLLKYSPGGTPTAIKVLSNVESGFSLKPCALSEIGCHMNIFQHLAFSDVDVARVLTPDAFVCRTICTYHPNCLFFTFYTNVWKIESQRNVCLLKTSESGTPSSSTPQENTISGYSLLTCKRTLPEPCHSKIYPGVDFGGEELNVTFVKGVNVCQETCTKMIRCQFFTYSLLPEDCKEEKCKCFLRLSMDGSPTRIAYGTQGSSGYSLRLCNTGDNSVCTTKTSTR
purified human Factor XIa, sequence (P03951 388-625): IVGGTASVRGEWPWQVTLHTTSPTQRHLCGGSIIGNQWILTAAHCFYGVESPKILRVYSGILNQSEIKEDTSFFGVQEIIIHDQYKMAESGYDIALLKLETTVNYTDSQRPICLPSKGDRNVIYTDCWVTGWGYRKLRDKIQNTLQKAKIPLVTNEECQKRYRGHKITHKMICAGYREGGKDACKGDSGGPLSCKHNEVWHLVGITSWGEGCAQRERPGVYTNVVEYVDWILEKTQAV
purified human Factor XIa, sequence (P03951 19-387 partner): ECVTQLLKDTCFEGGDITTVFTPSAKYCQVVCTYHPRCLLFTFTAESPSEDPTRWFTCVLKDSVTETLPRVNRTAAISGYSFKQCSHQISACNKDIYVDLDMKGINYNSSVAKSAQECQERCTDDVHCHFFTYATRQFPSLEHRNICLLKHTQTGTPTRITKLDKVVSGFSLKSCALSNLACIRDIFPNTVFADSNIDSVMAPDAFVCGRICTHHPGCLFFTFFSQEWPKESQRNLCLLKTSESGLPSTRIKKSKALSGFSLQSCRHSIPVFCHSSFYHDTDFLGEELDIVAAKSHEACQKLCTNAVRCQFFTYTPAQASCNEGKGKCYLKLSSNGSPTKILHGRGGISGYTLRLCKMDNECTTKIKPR

Row | SMILES | Ki ([1]; read-out: Factor XIa Ki) [nM] | Ki [2, 3] [nM] | Ki [1, 4] [nM] | Ki ([2]; measured at 37° C. (*)) [nM] | Ki [1] [nM]
1 | CN(C)CCNC(=O)c1ccc(-c2cccc3c2CCN(C(=O)c2cn(-c4cccc(Cl)c4F)nn2)[C@H]3C(=O)Nc2ccc(C(=O)O)cc2)cc1 [Example 11, (R)-4-(2-(1-(3-Chloro-2-fluorophenyl)-1H-1,2,3-triazole-4-carbonyl)-5-(4-((2-(dimethylamino)ethyl)carbamoyl)phenyl)-1,2,3,4-tetrahydroisoquinoline-1-carboxamido)benzoic acid TFA salt] | 165 | 1060 |  |  | 
2 | O=C(O)c1ccc(NC(=O)C2c3cccc(-c4cncnc4)c3CCN2C(=O)c2cn(-c3cccc(Cl)c3F)nn2)cc1 (stereo not shown) [Example 12, 4-(2-(1-(3-Chloro-2-fluorophenyl)-1H-1,2,3-triazole-4-carbonyl)-5-(pyrimidin-5-yl)-1,2,3,4-tetrahydroisoquinoline-1-carboxamido)benzoic acid] |  | 9.88 | < 5 |  | 
3 | O=C(O)c1ccc(NC(=O)[C@H]2c3cccc(-c4cncnc4)c3CCN2C(=O)c2cn(-c3cccc(Cl)c3F)nn2)cc1 [Example 13, (R)-4-(2-(1-(3-Chloro-2-fluorophenyl)-1H-1,2,3-triazole-4-carbonyl)-5-(pyrimidin-5-yl)-1,2,3,4-tetrahydroisoquinoline-1-carboxamido)benzoic acid] |  | 427 | 11.9 |  | 
4 | O=C(O)c1ccc(NC(=O)[C@@H]2c3cccc(-c4cncnc4)c3CCN2C(=O)c2cn(-c3cccc(Cl)c3F)nn2)cc1 [Example 14, (S)-4-(2-(1-(3-Chloro-2-fluorophenyl)-1H-1,2,3-triazole-4-carbonyl)-5-(pyrimidin-5-yl)-1,2,3,4-tetrahydroisoquinoline-1-carboxamido)benzoic acid] |  | 6.27 | < 5 |  | 
5 | N#Cc1ccc(-c2cccc3c2CCN(C(=O)c2cn(-c4cccc(Cl)c4F)nn2)[C@H]3C(=O)Nc2ccc(C(=O)O)cc2)cn1 [Example 15, (R)-4-(2-(1-(3-Chloro-2-fluorophenyl)-1H-1,2,3-triazole-4-carbonyl)-5-(6-cyanopyridin-3-yl)-1,2,3,4-tetrahydroisoquinoline-1-carboxamido)benzoic acid, TFA salt] |  | 219 | 9.12 |  | 
6 | N#Cc1ccc(-c2cccc3c2CCN(C(=O)c2cn(-c4cccc(Cl)c4F)nn2)[C@@H]3C(=O)Nc2ccc(C(=O)O)cc2)cn1 [Example 16, (S)-4-(2-(1-(3-Chloro-2-fluorophenyl)-1H-1,2,3-triazole-4-carbonyl)-5-(6-cyanopyridin-3-yl)-1,2,3,4-tetrahydroisoquinoline-1-carboxamido)benzoic acid, TFA salt] |  | 4.55 | < 5 |  | 
7 | COC(=O)c1ccc(NC(=O)[C@H]2c3cccc(-c4cncnc4)c3CCN2C(=O)c2cn(-c3cccc(Cl)c3F)nn2)cc1 [Example 25, (R)-Methyl 4-(2-(1-(3-chloro-2-fluorophenyl)-1H-1,2,3-triazole-4-carbonyl)-5-(pyrimidin-5-yl)-1,2,3,4-tetrahydroisoquinoline-1-carboxamido)benzoate] |  |  | 3550 | > 4340 | 
8 | COC(=O)c1ccc(NC(=O)[C@@H]2c3cccc(-c4cncnc4)c3CCN2C(=O)c2cn(-c3cccc(Cl)c3F)nn2)cc1 [Example 26, (S)-Methyl 4-(2-(1-(3-chloro-2-fluorophenyl)-1H-1,2,3-triazole-4-carbonyl)-5-(pyrimidin-5-yl)-1,2,3,4-tetrahydroisoquinoline-1-carboxamido)benzoate] |  |  | 7.07 | 62 | 
9 | CNC(=O)c1ccc(-c2cccc3c2CCN(C(=O)c2cn(-c4cccc(Cl)c4F)nn2)[C@@H]3C(=O)Nc2ccc(C(=O)OC)cc2)cn1 [Example 27, (S)-Methyl 4-(2-(1-(3-chloro-2-fluorophenyl)-1H-1,2,3-triazole-4-carbonyl)-5-(6-(methylcarbamoyl)pyridin-3-yl)-1,2,3,4-tetrahydroisoquinoline-1-carboxamido)benzoate, TFA salt] |  |  | < 5 | 46.8 | 
10 | COC(=O)c1ccc(NC(=O)[C@@H]2c3cccc(-c4cncnc4)c3CCN2C(=O)[C@H]2CC(c3cccc(Cl)c3F)=NO2)cc1 [Example 28, Methyl 4-((S)-2-((R)-3-(3-chloro-2-fluorophenyl)-4,5-dihydroisoxazole-5-carbonyl)-5-(pyrimidin-5-yl)-1,2,3,4-tetrahydroisoquinoline-1-carboxamido)benzoate] |  |  | < 5 | 55.8 | 
11 | COC(=O)c1ccc(NC(=O)[C@H]2c3cccc(-c4cncnc4)c3CCN2C(=O)[C@H]2CC(c3cccc(Cl)c3F)=NO2)cc1 [Example 29, Methyl 4-((R)-2-((R)-3-(3-chloro-2-fluorophenyl)-4,5-dihydroisoxazole-5-carbonyl)-5-(pyrimidin-5-yl)-1,2,3,4-tetrahydroisoquinoline-1-carboxamido)benzoate] |  |  | 58.9 | 1200 | 
12 | Nc1ncc(-c2cccc3c2CCN(C(=O)c2cn(-c4cccc(Cl)c4F)nn2)C3C(=O)Nc2ccc(C(=O)O)cc2)cn1 (stereo not shown) [Example 30, 4-(5-(2-aminopyrimidin-5-yl)-2-(1-(3-chloro-2-fluorophenyl)-1H-1,2,3-triazole-4-carbonyl)-1,2,3,4-tetrahydroisoquinoline-1-carboxamido)benzoic acid, TFA salt] |  | 15.7 | < 5 |  | 
13 | COc1ncc(-c2cccc3c2CCN(C(=O)c2cn(-c4cccc(Cl)c4F)nn2)C3C(=O)Nc2ccc(C(=O)O)cc2)cn1 (stereo not shown) [Example 31, 4-(2-(1-(3-chloro-2-fluorophenyl)-1H-1,2,3-triazole-4-carbonyl)-5-(2-methoxypyrimidin-5-yl)-1,2,3,4-tetrahydroisoquinoline-1-carboxamido)benzoic acid] |  | 19.9 |  |  | < 5
14 | N#Cc1ncc(-c2cccc3c2CCN(C(=O)c2cn(-c4cccc(Cl)c4F)nn2)C3C(=O)Nc2ccc(C(=O)O)cc2)cn1 (stereo not shown) [Example 32, 4-(2-(1-(3-chloro-2-fluorophenyl)-1H-1,2,3-triazole-4-carbonyl)-5-(2-cyanopyrimidin-5-yl)-1,2,3,4-tetrahydroisoquinoline-1-carboxamido)benzoic acid] |  | 17.5 |  |  | < 5
15 | O=C(O)c1ccc(NC(=O)C2c3cccc(-c4cccnc4)c3CCN2C(=O)c2cn(-c3cccc(Cl)c3F)nn2)cc1 (stereo not shown) [Example 33, 4-(2-(1-(3-chloro-2-fluorophenyl)-1H-1,2,3-triazole-4-carbonyl)-5-(pyridin-3-yl)-1,2,3,4-tetrahydroisoquinoline-1-carboxamido)benzoic acid, TFA salt] |  | 9.54 | < 5 |  | 
16 | O=C(O)c1ccc(NC(=O)C2c3cccc(-c4cnc(O)nc4)c3CCN2C(=O)c2cn(-c3cccc(Cl)c3F)nn2)cc1 (stereo not shown) [Example 34, 4-(2-(1-(3-chloro-2-fluorophenyl)-1H-1,2,3-triazole-4-carbonyl)-5-(2-hydroxypyrimidin-5-yl)-1,2,3,4-tetrahydroisoquinoline-1-carboxamido)benzoic acid] |  | 0.46 |  |  | < 5
17 | O=C(O)c1ccc(NC(=O)C2c3cccc(-c4cncc(F)c4)c3CCN2C(=O)c2cn(-c3cccc(Cl)c3F)nn2)cc1 (stereo not shown) [Example 35, 4-(2-(1-(3-chloro-2-fluorophenyl)-1H-1,2,3-triazole-4-carbonyl)-5-(5-fluoropyridin-3-yl)-1.2,3,4-tetrahydroisoquinoline-1-carboxamido)benzoic acid, TFA salt] |  | 22.9 | < 5 |  | 
18 | COc1cncc(-c2cccc3c2CCN(C(=O)c2cn(-c4cccc(Cl)c4F)nn2)C3C(=O)Nc2ccc(C(=O)O)cc2)c1 (stereo not shown) [Example 36, 4-(2-(1-(3-chloro-2-fluorophenyl)-1H-1,2,3-triazole-4-carbonyl)-5-(5-methoxypyridin-3-yl)-1,2,3,4-tetrahydroisoquinoline-1-carboxamido)benzoic acid, TFA salt] |  | 26.7 | < 5 |  | 
19 | CNC(=O)c1cncc(-c2cccc3c2CCN(C(=O)c2cn(-c4cccc(Cl)c4F)nn2)C3C(=O)Nc2ccc(C(=O)O)cc2)c1 (stereo not shown) [Example 37, 4-(2-(1-(3-chloro-2-fluorophenyl)-1H-1,2,3-triazole-4-carbonyl)-5-(5-(methylcarbamoyl)pyridin-3-yl)-1,2,3,4-tetrahydroisoquinoline-1-carboxamido)benzoic acid, TFA salt] |  | 12.9 | < 5 |  | 
20 | Nc1ccc(-c2cccc3c2CCN(C(=O)c2cn(-c4cccc(Cl)c4F)nn2)C3C(=O)Nc2ccc(C(=O)O)cc2)cn1 (stereo not shown) [Example 39, 4-(5-(6-aminopyridin-3-yl)-2-(1-(3-chloro-2-fluorophenyl)-1H-1,2,3-triazole-4-carbonyl)-1,2,3,4-tetrahydroisoquinoline-1-carboxamido)benzoic acid, bis-TFA salt] |  | 2.63 | < 5 |  | 
21 | O=C(O)c1ccc(NC(=O)C2c3cccc(-c4cn[nH]c4)c3CCN2C(=O)c2cn(-c3cccc(Cl)c3F)nn2)cc1 (stereo not shown) [Example 41, 4-(2-(1-(3-chloro-2-fluorophenyl)-1H-1,2,3-triazole-4-carbonyl)-5-(1H-pyrazol-4-yl)-1,2,3,4-tetrahydroisoquinoline-1-carboxamido)benzoic acid] |  | 7.68 |  |  | < 5
22 | Cn1nccc1-c1cccc2c1CCN(C(=O)c1cn(-c3cccc(Cl)c3F)nn1)C2C(=O)Nc1ccc(C(=O)O)cc1 (stereo not shown) [Example 42, 4-(2-(1-(3-chloro-2-fluorophenyl)-1H-1,2,3-triazole-4-carbonyl)-5-(1-methyl-1H-pyrazol-5-yl)-1,2,3,4-tetrahydroisoquinoline-1-carboxamido)benzoic acid] |  | 13.1 |  |  | < 5
23 | Cn1ccc(-c2cccc3c2CCN(C(=O)c2cn(-c4cccc(Cl)c4F)nn2)C3C(=O)Nc2ccc(C(=O)O)cc2)n1 (stereo not shown) [Example 43, 4-(2-(1-(3-chloro-2-fluorophenyl)-1H-1,2,3-triazole-4-carbonyl)-5-(1-methyl-1H-pyrazol-3-yl)-1,2,3,4-tetrahydroisoquinoline-1-carboxamido)benzoic acid] |  | 16.2 |  |  | < 5
